Measurements published in patent US20220323406A1, “METHODS AND COMPOSITIONS FOR DIFFERENTIATING STEM CELLS” (Massachusetts Institute of Technology, priority 2019, published 2022).

Assays:
ENR+CD organoids = assay: Primary screen: ATP (CellTiter-Glo 3D, CTG) cell number/viability, 2.5-D 384-well ENR+CD organoids;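 also: compounds given at plating and again on day 3 over a 6-day differentiation from ENR+CV stem-cell-enriched precursors, ATP measured on day 6, plate median as control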
[1] = test system: ENR+CD organoids (ISC to Paneth cell differentiation); assay: Primary screen: basal (non-stimulated) lysozyme secretion LYZ.NS, 2.5-D 384-well ENR+CD organoid differentiation; format: cell-based, mouse
Description: (§1) High-throughput screening.

[2] = test system: ENR+CD organoids (ISC to Paneth cell differentiation); assay: Primary screen: CCh-stimulated lysozyme secretion LYZ.S, 2.5-D 384-well ENR+CD organoid differentiation; format: cell-based, mouse; conditions: primary screen
Description: as §1

[3] = primary screen, dose 0.08 uM, standard z score
[4] = primary screen, dose 0.40 uM, standard z score
[5] = primary screen, dose 2.00 uM, standard z score
[6] = primary screen, dose 10.00 uM, standard z score
[7] = primary screen; dose 0.08 uM; FC vs plate median
[8] = primary screen; dose 0.40 uM; FC vs plate median
[9] = primary screen; dose 2.00 uM; FC vs plate median
[10] = primary screen; dose 10.00 uM; FC vs plate median
[11] = dose 0.08 uM, FC vs plate median
[12] = dose 0.40 uM, FC vs plate median
[13] = dose 2.00 uM, FC vs plate median
[14] = primary screen, standard z score, dose 0.08 uM
[15] = primary screen, standard z score, dose 0.40 uM
[16] = primary screen, standard z score, dose 2.00 uM
[17] = primary screen, standard z score, dose 10.00 uM
[18] = primary screen, dose 10.00 uM, FC relative to plate median

Cc1cnc(-c2cc(N3CCN(C(=O)CCS(C)(=O)=O)CC3)ncc2Cl)c(C)c1 [PF-5274857]
Z.CTG (ENR+CD organoids; [3]): −0.242
Z.CTG (ENR+CD organoids; [4]): −0.096
Z.CTG (ENR+CD organoids; [5]): 0.131
Z.CTG (ENR+CD organoids; [6]): −0.183
Dose.FC.CTG (ENR+CD organoids; [7]): −0.101 log2 fold change
Dose.FC.CTG (ENR+CD organoids; [8]): −0.040 log2 fold change
Dose.FC.CTG (ENR+CD organoids; [9]): 0.055 log2 fold change
Dose.FC.CTG (ENR+CD organoids; [10]): −0.076 log2 fold change
Z.LYZ.NS [1, 3]: 0.683
Z.LYZ.NS [1, 4]: −0.256
Z.LYZ.NS [1, 5]: 0.094
Z.LYZ.NS [1, 6]: 0.642
Dose.FC.LYZ.NS [1, 7]: 0.078 log2 fold change
Dose.FC.LYZ.NS [1, 8]: −0.029 log2 fold change
Dose.FC.LYZ.NS [1, 9]: 0.011 log2 fold change
Dose.FC.LYZ.NS [1, 10]: 0.074 log2 fold change
Dose.FC.LYZ.S [2, 11]: 0.187 log2 fold change
Dose.FC.LYZ.S [2, 12]: −0.034 log2 fold change
Dose.FC.LYZ.S [2, 13]: 0.042 log2 fold change
Dose.FC.LYZ.S ([2]; dose 10.00 uM, FC vs plate median): 0.076 log2 fold change

CC(C)c1cc(-c2n[nH]c(=O)n2-c2ccc3c(ccn3C)c2)c(O)cc1O [Ganetespib (STA-9090)]
Dose.FC.CTG (ENR+CD organoids; primary screen, dose 0.08 uM): −1.450 log2 fold change
Dose.FC.CTG (ENR+CD organoids; primary screen, dose 0.40 uM): −2.105 log2 fold change
Dose.FC.CTG (ENR+CD organoids; primary screen, dose 2.00 uM): −1.721 log2 fold change
Dose.FC.CTG (ENR+CD organoids; primary screen, dose 10.00 uM): −1.620 log2 fold change
Z.CTG (ENR+CD organoids; [14]): −3.465
Z.CTG (ENR+CD organoids; [15]): −5.027
Z.CTG (ENR+CD organoids; [16]): −4.110
Z.CTG (ENR+CD organoids; [17]): −3.871
Dose.FC.LYZ.NS ([1]; primary screen, dose 0.08 uM): −0.141 log2 fold change
Dose.FC.LYZ.NS ([1]; primary screen, dose 0.40 uM): −0.155 log2 fold change
Dose.FC.LYZ.NS ([1]; primary screen, dose 2.00 uM): −0.150 log2 fold change
Dose.FC.LYZ.NS ([1]; primary screen, dose 10.00 uM): −0.136 log2 fold change
Z.LYZ.NS [1, 14]: −1.226
Z.LYZ.NS [1, 15]: −1.345
Z.LYZ.NS [1, 16]: −1.309
Z.LYZ.NS [1, 17]: −1.181
Dose.FC.LYZ.S ([2]; dose 0.08 uM): −0.260 log2 fold change
Dose.FC.LYZ.S ([2]; dose 0.40 uM): −0.250 log2 fold change
Dose.FC.LYZ.S ([2]; dose 2.00 uM): −0.260 log2 fold change
Dose.FC.LYZ.S ([2]; dose 10.00 uM): −0.267 log2 fold change

CC(C)(C)n1nc(-c2ccc(Cl)cc2)c2c(N)ncnc21 [PP2]
Z.CTG (ENR+CD organoids; [3]): −1.655
Z.CTG (ENR+CD organoids; [4]): 0.312
Z.CTG (ENR+CD organoids; [5]): −0.913
Dose.FC.CTG (ENR+CD organoids; [18]): −0.246 log2 fold change
Z.CTG (ENR+CD organoids; [6]): −0.587
Dose.FC.CTG (ENR+CD organoids; [7]): −0.693 log2 fold change
Dose.FC.CTG (ENR+CD organoids; [8]): 0.130 log2 fold change
Dose.FC.CTG (ENR+CD organoids; [9]): −0.382 log2 fold change
Z.LYZ.NS [1, 3]: 0.285
Z.LYZ.NS [1, 4]: 0.104
Z.LYZ.NS [1, 5]: 2.354
Dose.FC.LYZ.NS [1, 18]: −0.027 log2 fold change
Z.LYZ.NS [1, 6]: −0.235
Dose.FC.LYZ.NS [1, 7]: 0.033 log2 fold change
Dose.FC.LYZ.NS [1, 8]: 0.012 log2 fold change
Dose.FC.LYZ.NS [1, 9]: 0.270 log2 fold change
Dose.FC.LYZ.S ([2]; dose 10.00 uM, FC relative to plate median): 0.027 log2 fold change
Dose.FC.LYZ.S [2, 11]: 0.058 log2 fold change
Dose.FC.LYZ.S [2, 12]: 0.145 log2 fold change
Dose.FC.LYZ.S [2, 13]: 0.113 log2 fold change

CCOc1ccccc1-n1c(C(C)N2CCN(C(=O)COc3ccc(Cl)cc3)CC2)nc2ccccc2c1=O (stereo not shown) [Erastin]
Dose.FC.CTG (ENR+CD organoids; primary screen, dose 0.08 uM): 0.225 log2 fold change
Dose.FC.CTG (ENR+CD organoids; primary screen, dose 0.40 uM): 0.285 log2 fold change
Dose.FC.CTG (ENR+CD organoids; primary screen, dose 2.00 uM): 0.380 log2 fold change
Dose.FC.CTG (ENR+CD organoids; primary screen, dose 10.00 uM): 0.298 log2 fold change
Dose.FC.LYZ.NS ([1]; primary screen, dose 0.08 uM): 0.157 log2 fold change
Dose.FC.LYZ.NS ([1]; primary screen, dose 0.40 uM): 0.158 log2 fold change
Dose.FC.LYZ.NS ([1]; primary screen, dose 2.00 uM): 0.157 log2 fold change
Dose.FC.LYZ.NS ([1]; primary screen, dose 10.00 uM): −0.015 log2 fold change
Z.LYZ.NS [1, 14]: 1.368
Z.LYZ.NS [1, 15]: 1.375
Z.LYZ.NS [1, 16]: 1.367
Z.LYZ.NS [1, 17]: −0.133
Dose.FC.LYZ.S ([2]; dose 0.08 uM): 0.170 log2 fold change
Dose.FC.LYZ.S ([2]; dose 0.40 uM): 0.160 log2 fold change
Dose.FC.LYZ.S ([2]; dose 2.00 uM): 0.106 log2 fold change
Dose.FC.LYZ.S ([2]; dose 10.00 uM): 0.039 log2 fold change
